{"source": "PubChem BioAssay AID1972", "about": "(The Scripps Research Institute Molecular Screening Center, 2009)", "system": "IEC-6 rat intestinal cells viability, luminescence", "test": "PubChem AID 1972", "note": "pIC50: −log10 of the molar value."}
{"smiles": "COc1cc2c(c(OC)c1OC)-c1ccc(O)c(=O)cc1C(NC(C)=O)CC2", "note": "(stereo unspecified)", "values": [{"measurement": "pIC50", "value": 6.92}]}
